Reference: PubChem BioAssay (NCI)
Values joined by “and” are separate entries in the source; they are usually repeats but may differ in a detail not shown here. Identical values can stand only once.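 Growth conditions: 96-well plates. Treatment: test compound, 48 hours, 5 concentrations. Analysis: linear interpolation between bracketing concentrations; unreached endpoints set to highest concentration. The concentration for 50% growth inhibition is given as GI50. TGI is the concentration that stops growth completely.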

How the values were obtained:
Experiment in all cases: NCI tumour cell line growth inhibition, 48 h
T-47D breast = test system: T-47D breast
MCF7 breast = test system: MCF7 breast
MDA-MB-435 = test system: MDA-MB-435

Structure (SMILES)	GI50 (T-47D breast)	TGI (T-47D breast)	GI50 (MCF7 breast)	TGI (MCF7 breast)	GI50 (MDA-MB-435)	TGI (MDA-MB-435)
O=C(NO)c1ccc(CN(c2cnccn2)c2cnccn2)cc1	9.55 µM	38.1 µM	12.1 µM	> 100 µM	12.2 µM	27.7 µM
COc1ccc(Cc2cnc(NC(=O)c3ccc4c(c3)OCCO4)s2)cc1	2.95 µM	> 100 µM	0.0307 µM	> 100 µM		
CCCCCCCCCCN1CCC(N2CCCCC2)CC1	1.53 µM	3.58 µM	1.54 µM	3.64 µM	1.47 µM	3.55 µM
COc1ccc(/C=C(/c2ccccc2)[N+](=O)[O-])cc1	1.2 µM	4.5 µM	0.567 µM	2.68 µM	1.3 µM	2.69 µM
COc1ccc2c3c(Nc4ccc(/C(C)=N/O)cc4)[nH]c4ccccc4c-3c(N=O)c2c1	24.1 µM	53.2 µM	0.843 µM	> 100 µM	2.77 µM	11.9 µM
C/C(=N\NC(=S)N1CC2CCC(CC2)C1)c1ccccn1	0.0113 µM	1.39 µM	< 0.0145 µM	1.44 µM	0.141 µM	1.64 µM
C[C@]12CC[C@@H]3c4ccc(O)c([N+](=O)[O-])c4CC[C@H]3[C@@H]1CC[C@@H]2NS(=O)(=O)c1cccc(Br)c1	1.8 µM	3.96 µM	1.8 µM	3.93 µM	1.53 µM	2.98 µM
Clc1ccc(N=CNc2ccc(-c3nc4ccccc4o3)cc2)cc1	13.1 µM	52.1 µM			21.1 µM	49.8 µM
O=C(NCc1ccc(S(=O)(=O)c2cc(F)cc(F)c2)cc1)c1ccc2nccn2c1	11.7 µM	> 100 µM	8.69 µM	> 100 µM	0.0508 µM	> 100 µM
COC(=O)CCC1=C(CC(=O)OC)C(C)=N/C1=C\c1[nH]c(-c2ccc[nH]2)cc1OC	3.55 µM	16.3 µM	2.38 µM	13.5 µM	5.81 µM	23.3 µM
CCCCCCCCCCCCOC1C(C(CC(=O)NCCN2CCCC2)NS(=O)(=O)c2cc(Cl)cc(Cl)c2)OC2OC(C)(C)OC21 (stereo not given)		4.46 µM and 2.04 µM	1.98 µM and 1.73 µM	3.91 µM and 3.51 µM	1.41 µM	3.03 µM
O=C(N/N=C/c1ccc([N+](=O)[O-])o1)c1ccc(O)cc1	6.96 µM	32.7 µM	2.84 µM	14 µM	1.65 µM	3.19 µM
Cc1cc(C)n(-c2nnc3n2N=C(c2ccc(-c4ccccc4)cc2)CS3)n1	4.05 µM	> 100 µM	2.84 µM	> 100 µM	1.71 µM	4.46 µM
CO/N=C(/C)c1cccc(Nc2cc(-c3ccccc3)nc3ccc(OC)cc23)c1	71 µM	> 100 µM	5.71 µM	56.5 µM	1.99 µM	6.12 µM
CC/C=C/C/C=C/C/C=C/C/C=C/C/C=C/C/C=C/CCC(=O)Nc1ccn([C@@H]2O[C@H](CO)[C@@H](O)C2(F)F)c(=O)n1	0.174 µM	54.4 µM		17.2 µM	0.2 µM	17.5 µM
COC(=O)c1cc(/C=C/c2ccc(S(N)(=O)=O)cc2)ccc1O			30.7 µM	> 100 µM	35.6 µM	> 100 µM
CC[C@@]1(O)C(=O)OCc2c1cc1n(c2=O)Cc2c-1nc1cc(F)c(C)c3c1c2[C@@H](N)CC3	< 0.01 µM	> 100 µM	< 0.01 µM	> 100 µM	0.015 µM	1.48 µM
Clc1cc(Cl)cc(Nc2ccc3cc(OCCCN4CCOCC4)ccc3n2)c1	3.01 µM	14.1 µM				
O=C1CSC(c2ccc(-c3nc4ccccc4s3)cc2)=N1	90.9 µM	> 100 µM			7.54 µM	24.8 µM
O=C1C(Cl)=C(Nc2ccccc2O)C(=O)N1Cc1ccccc1	23.3 µM	52.7 µM	24.5 µM	64.6 µM	19.7 µM	37.4 µM
CCN(CC)c1cc2oc3cc(N)cc(=N)c-3nc2cc1C	5.04 µM	43.8 µM	1.86 µM	4.49 µM		
CCCCCc1ccc(S(=O)(=O)Nc2cc(-c3csc(NC(C)=O)n3)ccc2N2CCN(C)CC2)cc1	4.8 µM	11.7 µM	1.6 µM	6.45 µM	4.85 µM	9.5 µM
NC(=S)N/N=C/c1cc(-c2cccc(N)c2)ccn1	1.34 µM	> 100 µM	2 µM	> 44.8 µM	3.2 µM	> 100 µM
N#Cc1ccc(OC(=O)Nc2ccc(Cl)c(Cl)c2)cc1	3.15 µM	12.8 µM	2.6 µM	11.6 µM	3.17 µM	22.4 µM
COc1ccc2c(c1)C(C)Cc1c(ncnc1-n1cnc3cc(C)ccc31)N2C (stereo not given)			0.0379 µM	12.7 µM		
